{"source": "paper PMC3596305", "about": "“Escherichia coli NemA Is an Efficient Chromate Reductase That Can Be Biologically Immobilized to Provide a Cell Free System for Remediation of Hexavalent Chromium” (PLoS ONE, 2013)", "system": "T1, KefF_Pa", "T1 construct": "gene kefF", "assay": "diphenylcarbazide Cr(VI) assay, Lineweaver-Burk", "format": "biochemical", "settings": "1 mM NADH, 50 mM Tris-Cl pH 7.0, 22°C; read-out: KM (μM) ^b", "source_text": "diphenylcarbazide Cr(VI) assay, Lineweaver-Burk on KefF_Pa"}
{"smiles": "[O]=[Cr](=[O])([OH])[OH]", "note": "[Cr(VI)]", "values": [{"measurement": "Km", "result": 140, "unit": "µM"}]}
